In patent USRE45173E1, “Inhibitors of CYP 17” (Novartis AG, priority 2009, dated 2014):
pIC50: −log10 of the molar value. Where a name gives a salt, the structure may show the parent alone. Read-outs that look alike come from different tables or passages of the source.

Molecular target: recombinant human CYP17 enzyme (Homo sapiens (Human), UniProt P05093)
Assay: Cytochrome P450, 17-20 lyase (CYP17-lyase) assay, tritiated acetic acid release from 17-α-hydroxy pregnenolone [21-3H]
Type: biochemical
Settings: for IC50: read-out: Lyase IC 50 nM Human/Rat (Human); for pIC50: read-out: Lyase IC 50 Human/Rat (Human)
Description: Assay method was adopted from a published protocol with some modifications to suit our requirements (Dmitry N Grigoryev et al, Analytical Biochemistry, (1999) 267, 319-330). […] Chloroform extraction removes the radioactive steroids and acetic acid is taken into aqueous layer. The tritiated acetic acid released in the assay thus extracted is quantified to determine the enzyme activity. […] The purified cell membrane preparations were used as the source for Human CYP17 enzyme. […] O, Nijar, et al., J Med Chem, (1998) 41, 902-912). […] Km for this substrate was determined by monitoring the tritiated acetic acid release as a function of substrate concentration. […] For the Km determination, the data was fit to a hyperbolic equation (Graphpad Prism® software IV). […] (Dmitry N. Grigoryev et al, Analytical Biochemistry (1999) 267, 319-330) […] NADPH is used at a final concentration of 4.2 mM. Total reaction volume was made up to 50 μL with 50 mM Phosphate buffer pH 7.5. The reaction mixture was incubated at room temperature for 90 minutes with gentle shaking. The reaction was stopped by the addition of 100 μL of buffer. 500 μL of 5% freshly prepared activated charcoal was added to the solution and mixed well by vortexing. The samples were centrifuged at 17568×g for 5 minutes. (14000 rpm). The supernatant was carefully transferred to fresh tube and 1.3 mL of scintillation fluid was added, mixed by vortexing. The radioactivity was measured in a 1450 MicroBeta TriLux™ scintillation counter from Wallac-Perkin Elmer®, USA. The measurements were carried out in 2.0 mL Eppendorforf™ tubes. […] The amount of tritiated acetic acid released is proportional to the lyase activity. Percent lyase activity in presence of inhibitor was calculated using the formula given below. […] Enzyme reaction in presence of inhibitor. • Positive control: […] For IC50 determination, the % inhibition was plotted as a function of inhibitor concentration. The data was fitted to sigmoidal equation using Graphpad Prism® software IV to generate IC50 values.

Sequence of recombinant human CYP17 enzyme (P05093 whole entry): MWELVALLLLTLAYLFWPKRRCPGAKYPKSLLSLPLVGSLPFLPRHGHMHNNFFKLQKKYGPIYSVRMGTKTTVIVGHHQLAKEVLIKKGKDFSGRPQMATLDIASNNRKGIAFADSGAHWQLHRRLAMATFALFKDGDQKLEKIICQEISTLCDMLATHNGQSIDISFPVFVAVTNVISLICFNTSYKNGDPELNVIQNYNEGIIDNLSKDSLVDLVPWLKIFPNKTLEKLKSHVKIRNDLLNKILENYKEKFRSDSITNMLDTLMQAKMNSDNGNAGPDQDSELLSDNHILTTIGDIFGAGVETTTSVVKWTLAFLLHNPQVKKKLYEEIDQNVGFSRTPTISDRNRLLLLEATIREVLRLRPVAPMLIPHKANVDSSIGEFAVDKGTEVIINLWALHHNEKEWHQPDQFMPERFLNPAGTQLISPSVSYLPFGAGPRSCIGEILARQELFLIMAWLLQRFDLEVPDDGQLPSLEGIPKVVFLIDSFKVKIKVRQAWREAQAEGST

Structure (SMILES) | IC50 (human CYP17, substrate 0.25 μM) [nM] | other results
Cc1ccncc1N1CCN(c2ccc3c(=O)[nH][nH]c3c2)C1=O [Example 135A, 6-[3-(4-Methyl-pyridin-3-yl)-2-oxo-imidazolidin-1-yl]-1,2-dihydro-indazol-3-one] | 15.9 | 
Cc1ccncc1N1CCN(c2cn(C)c3ccc(Cl)cc23)C1=O [Example 137A, 1-(5-Chloro-1-methyl-1H-indol-3-yl)-3-(4-methyl-pyridin-3-yl)-imidazolidin-2-one] | 1550 | 
Cc1ccncc1N1CCN(c2ccc(C#N)c(F)c2)C1=O [Example 140A, 2-Fluoro-4-[3-(4-methyl-pyridin-3-yl)-2-oxo-imidazolidin-1-yl]-benzonitrile] | 97 | 
Cc1ccncc1N1CCN(c2ccc3c(N)nn(C)c3c2)C1=O [Example 143A, 1-(3-Amino-1-methyl-1H-indazol-6-yl)-3-(4-methyl-pyridin-3-yl)-imidazolidin-2-one] | 116 | 
Cc1ccncc1N1CCN(c2ccn3c(Cl)cnc3c2)C1=O [Example 145A, 1-(3-Chloro-imidazo[1,2-a]pyridin-7-yl)-3-(4-methyl-pyridin-3-yl)-imidazolidin-2-one] | 31 | 
Cc1ccncc1N1CCN(c2cn(C)c3cccc(C#N)c23)C1=O [Example 146A, 1-Methyl-3-[3-(4-methyl-pyridin-3-yl)-2-oxo-imidazolidin-1-yl]-1H-indole-4-carbonitrile] |  | pIC50 (human CYP17, substrate 0.25 μM): < 5.00
Cc1ccncc1N1CCN(c2ccc3c(c2)C(C)(C)C(=O)N3CO)C1=O [Example 147A, 1-Hydroxymethyl-3,3-dimethyl-5-[3-(4-methyl-pyridin-3-yl)-2-oxo-imidazolidin-1-yl]-1,3-dihydro-indol-2-one] | 346 | 
Cc1ccncc1N1CCN(c2ccnc(C(F)(F)F)c2)C1=O [Example 148A, 1-(4-Methyl-pyridin-3-yl)-3-(2-trifluoromethyl-pyridin-4-yl)-imidazolidin-2-one] | 25 | 
COC(OC)c1ccncc1N1CCN(c2ccc3ncsc3c2)C1=O [Example 149A, 1-Benzothiazol-6-yl-3-(4-dimethoxymethyl-pyridin-3-yl)-imidazolidin-2-one] | 37 | 
CC(=O)Nc1ccncc1N1CCN(c2ccc3ncsc3c2)C1=O [Example 150A, N-[3-(3-Benzothiazol-6-yl-2-oxo-imidazolidin-1-yl)-pyridin-4-yl]-acetamide] | 496 | 
Cc1c(Cl)cncc1N1CCN(c2ccc3ncsc3c2)C1=O [Example 151A, 1-Benzothiazol-6-yl-3-(5-chloro-4-methyl-pyridin-3-yl)-imidazolidin-2-one] | 13.3 | 
Nc1ccncc1N1CCN(c2ccc3ncsc3c2)C1=O [Example 152A, 1-(4-Amino-pyridin-3-yl)-3-benzothiazol-6-yl-imidazolidin-2-one Hydrochloride Salt] | 7 | 
Cc1c(N2CCN(c3ccc4ncsc4c3)C2=O)cncc1C(F)(F)F [Example 153A, 1-(benzo[d]thiazol-6-yl)-3-(4-methyl-5-(trifluoromethyl)pyridin-3-yl)imidazolidin-2-one, Trifluoroacetic Acid Salt] |  | IC50: 280 nM
Cc1ccncc1N1CCN(c2ccc(C(F)(F)F)s2)C1=O [Example 155A, 1-(4-Methylpyridin-3-yl)-3-(5-(trifluoromethyl)thiophen-2-yl)-imidazolidin-2-one] | 2.7 | 
CC(C)(O)c1ccncc1N1CCN(c2ccc3ncsc3c2)C1=O [Example 156A, 1-(benzo[d]thiazol-6-yl)-3-(4-(2-hydroxypropan-2-yl)pyridin-3-yl)imidazolidin-2-one] |  | pIC50 (human CYP17, substrate 0.25 μM): < 5.00
CC(O)c1ccncc1N1CCN(c2ccc3ncsc3c2)C1=O (stereo not drawn) [Example 158A, 1-(benzo[d]thiazol-6-yl)-3-(4-(1-hydroxyethyl)pyridin-3-yl)imidazolidin-2-one] | 38 | 
CCc1ccncc1N1CCN(c2ccc3ncsc3c2)C1=O [Example 159A, 1-(benzo[d]thiazol-6-yl)-3-(4-ethylpyridin-3-yl)imidazolidin-2-one] | 3.4 | 
Cc1ccncc1N1CCN(c2ccc3c(C(F)(F)F)n[nH]c3c2)C1=O [Example 160A, 1-(4-methylpyridin-3-yl)-3-(3-(trifluoromethyl)-1H-indazol-6-yl)imidazolidin-2-one] | 34 | 
Cc1ccncc1N1CCN(c2ccc3c(C4CC4)n[nH]c3c2)C1=O [Example 161A, 1-(3-Cyclopropyl-1H-indazol-6-yl)-3-(4-methylpyridin-3-yl)imidazolidin-2-one] | 82 | 
Cc1ccncc1N1CC(C)(C)N(c2ccc3ncsc3c2)C1=O [Example 163A, 3-Benzothiazol-6-yl-4,4-dimethyl-1-(4-methyl-pyridin-3-yl)-imidazolidin-2-one] |  | pIC50 (human CYP17, substrate 0.25 μM): < 5.00
CC1(C)CN(c2ccc3ncsc3c2)C(=O)N1c1cccnc1 [Example 164A, 1-Benzothiazol-6-yl-4,4-dimethyl-3-pyridin-3-yl-imidazolidin-2-one] | 70 | 
O=C1N(c2ccc3ncsc3c2)CCN1c1cnccc1CN1CCCC1 [Example 176A, 1-Benzothiazol-6-yl-3-(4-pyrrolidin-1-ylmethyl-pyridin-3-yl)-imidazolidin-2-one] | 39 | 
O=C1N(c2ccc3ncsc3c2)CCN1c1cnccc1CN1CCOCC1 [Example 177A, 1-benzothiazol-6-yl-3-(4-morpholin-4-ylmethyl-pyridin-3-yl)-imidazolidin-2-one] | 32 | 
O=C1N(c2ccc3ncsc3c2)CCN1c1cnccc1CNC1CC1 [Example 178A, 1-Benzothiazol-6-yl-3-(4-cyclopropylaminomethyl-pyridin-3-yl)-imidazolidin-2-one] | 19 | 
Cc1cc(NCc2ccncc2N2CCN(c3ccc4ncsc4c3)C2=O)n[nH]1 [Example 182A, 1-Benzothiazol-6-yl-3-{4-[(5-methyl-1H-pyrazol-3-ylamino)-methyl]-pyridin-3-yl}-imidazolidin-2-one] | 27 | 
O=C1N(c2cnc3[nH]cnc3c2)CCN1c1ccc2ncsc2c1 [Example 183A, 1-Benzothiazol-6-yl-3-(3H-imidazo[4,5-b]pyridin-6-yl)-imidazolidin-2-one] |  | pIC50 (human CYP17, substrate 0.25 μM): < 5.00

More lines, main results first:

IC50 (human CYP17, substrate 0.25 μM) [nM] | Structure (SMILES) | other results
950 | Cc1ccncc1N1CCN(c2ccc3c(ccn3C)c2)C1=O [Example 134A, 1-(1-Methyl-1H-indol-5-yl)-3-(4-methyl-pyridin-3-yl)-imidazolidin-2-one] | 
500 | Cc1ccncc1N1CCN(c2csc3ccncc23)C1=O [Example 136A, 1-(4-Methyl-pyridin-3-yl)-3-thieno[3,2-c]pyridin-3-yl-imidazolidin-2-one] | 
13 | Cc1ccncc1N1CCN(c2ccc3c(c2)CCC3)C1=O [Example 138A, 1-Indan-5-yl-3-(4-methyl-pyridin-3-yl)-imidazolidin-2-one] | 
83 | Cc1ccncc1-n1ccn(-c2ccc3sccc3c2)c1=O [Example 139A, 1-Benzo[b]thiophen-5-yl-3-(4-methyl-pyridin-3-yl)-1,3-dihydro-imidazol-2-one] | 
13 | Cc1ccncc1N1CCN(c2ccc3[nH]nnc3c2)C1=O [Example 141A, 1-(1H-Benzotriazol-5-yl)-3-(4-methyl-pyridin-3-yl)-imidazolidin-2-one Hydrochloride] | 
21 | Cc1ccncc1-n1ccn(-c2ccc3ncsc3c2)c1=O [Example 142A, 1-Benzothiazol-6-yl-3-(4-methyl-pyridin-3-yl)-1,3-dihydro-imidazol-2-one] | 
174 | Cc1ccncc1N1CCN(c2ccc3cc[nH]c3c2)C1=O [Example 144A, 1-(1H-Indol-6-yl)-3-(4-methyl-pyridin-3-yl)-imidazolidin-2-one] | 
317 | Cc1ccncc1N1CCN(c2ccc3cccnc3c2)C1=O [Example 162A, 1-(4-methylpyridin-3-yl)-3-(quinolin-7-yl)imidazolidin-2-one] | 
1150 | Cc1ccncc1N1C(=O)N(c2ccc3ncsc3c2)CC1(C)C [Example 165A, 1-Benzothiazol-6-yl-4,4-dimethyl-3-(4-methyl-pyridin-3-yl)-imidazolidin-2-one] | 
32 | Cc1ccncc1N1CC(C)N(c2ccc3ncsc3c2)C1=O (stereo not drawn) [Example 166A, 3-Benzothiazol-6-yl-4-methyl-1-(4-methyl-pyridin-3-yl)-imidazolidin-2-one] | 
38 | Cc1ccncc1N1C(=O)N(c2ccc3ncsc3c2)CC1C (stereo not drawn) [Example 167A, 1-Benzothiazol-6-yl-4-methyl-3-(4-methyl-pyridin-3-yl)-imidazolidin-2-one] | 
384 | CCc1cn(-c2ccc3ncsc3c2)c(=O)n1-c1cnccc1C [Example 168A, 1-Benzothiazol-6-yl-4-ethyl-3-(4-methyl-pyridin-3-yl)-1,3-dihydro-imidazol-2-one] | 
85 | Cc1ccncc1N1C(=O)N(c2ccc3ncsc3c2)C(C)C1C (stereo not drawn) [Example 175A, 1-Benzothiazol-6-yl-4,5-dimethyl-3-(4-methyl-pyridin-3-yl)-imidazolidin-2-one] | 
